Measured values published in PubChem BioAssay AID1963838 (Molecular Pharmacology Branch, DTP, NCI, 2024).

System: 855422-203-R-J1-PDC complex spheroid viability
Assay: Anticancer human tumor 855422-203-R-J1-PDC patient-derived bladder carcinoma cell line growth inhibition [POLQ]
Conditions: for IC50: curve of first compound; for viability, T/C: stronger effect = lower value
Description: Multicellular complex tumor spheroid response to Polymerase (POL) inhibitors (novobiocin, ART-558, RP6685) in combination with a variety of drugs and investigational agents in selected tumor cell lines
The POL inhibitors (novobiocin, ART-558, and RP6685) were evaluated both individually and in combination with standard of care and investigational anticancer small molecules within a complex spheroid model of solid tumors. . Complex spheroids include a stromal component modeled by human endothelial cells (HUVEC) and fibroblasts modeled by human mesenchymal stem cells (MSCs). The concentration ranges selected for each drug and investigational agent were based upon clinically achievable concentrations if the clinical Cmax of the agent was known.
Compounds. The drugs and investigational agents: novobiocin (NSC847541), ART-558 (NSC835418), RP-6685 (NSC848927), peposertib (NSC802822), ceralasertib (NSC780249), elimusertib (NSC800525), camonsertib (NSC841442), AZD-1390 (NSC803789), olaparib (NSC753686), talazoparib (NSC767125), rucaparib (NSC756644), sotorasib (NSC818433), MRTX-1133 (NSC836407), SN-38 (NSC673596), topotecan (NSC609699), epotoside (NSC141540), doxorubicin (NSC123127), gemcitabine (NSC613327), 5-fluorouracil (NSC19893), paclitaxel (NSC125973), vemurafenib (NSC761431), MSA-2 (NSC828583), SN-011 (NSC837082), adavosertib (NSC754352), prexasertib (NSC758257), carboplatin (NSC241240) and oxaliplatin (NSC266046), were obtained from the National Cancer Institute (NCI) Developmental Therapeutics Program Chemical Repository (21). The FDA-approved anticancer drug set is available from the Developmental Therapeutics Program at https://dtp.cancer.gov/organization/dscb/obtaining/. […] The stock solutions were prepared in dimethyl sulfoxide (DMSO, Sigma-Aldrich, St. Louis, MO, cat. D2650), except for the platinum compounds which were prepared in saline (Quality Biological, Gaithersburg, MD, cat. 114-055-101), at 800-fold the tested concentration and stored at -70 degrees C prior to their use. All drugs and investigational agents were tested over a range starting from a high concentration at or near the clinical Cmax and decreasing in half-log increments. If the clinical Cmax for an agent had not been determined, the highest concentration tested was 10 microM, except for SN-38, which was tested at a high concentration of 1 microM.
Cell Culture. All cells were maintained in an incubator at 37 degrees C and 5% CO2 with 95% humidity. The PDC lines were cultured according to standard operating procedures established by the NCI PDMR (https://pdmr.cancer.gov). Table 3 of the manuscript, lists the cell lines along with the number of the three cell types plated to form the mct-spheroids and media for tumor cell growth. After thawing, all PDC lines, except 997537-175-T-J1-PDC and 415267-285-R-J2-PDC, were cultured in Matrigel-coated flasks prepared with a working solution of 1X Ham's F-12 nutrient mix, without supplementation (Thermo Fisher Scientific, cat. 11765054), 100 U/mL penicillin-streptomycin (Thermo Fisher Scientific, cat. 15140122), and 2.5% Matrigel (Corning Inc., Corning, NY, cat. 354248) for the first three passages. The two PDC lines 997537-175-T-J1-PDC and 415267-285-R-J2-PDC were cultured on uncoated flasks. The 857933-349-R-J2-PDC line was cultured in 6C/Colon 1B media containing advanced DMEM/F-12 (Thermo Fisher Scientific, cat. 12634028), 10 mM HEPES (Thermo Fisher Scientific, cat. 15630080), 1X GlutaMAX supplement (Thermo Fisher Scientific, cat. 35050061), 0.1 mg/mL primocin (InvivoGen, San Diego, CA, cat. ant-pm-2), 10% defined fetal bovine serum, heat inactivated (HyClone Laboratories Inc., Logan, UT, cat. SH30070.03HI), 50% L-WRN conditioned media (ATCC, cat. CRL-3276), 1.25 mM N-Acetyl-L-cysteine (Sigma-Aldrich, cat. A9165), 10 mM nicotinamide (Sigma-Aldrich, cat. N0636), 1X B-27 supplement (Thermo Fisher Scientific, cat. 17504044), 1X N-2 supplement (Thermo Fisher Scientific, cat. […]

[1] = second compound 0.0316 µM, first compound 0.0316 µM
[2] = second compound 0.0316 µM, first compound 0.1 µM
[3] = second compound 0.1 µM, first compound 0.0316 µM
[4] = second compound 0.1 µM, first compound 0.1 µM
[5] = second compound 0.316 µM, first compound 0.0316 µM
[6] = second compound 0.316 µM, first compound 0.1 µM
[7] = second compound 1 µM, first compound 0.0316 µM
[8] = second compound 1 µM, first compound 0.1 µM
[9] = second compound 3.16 µM, first compound 0.0316 µM
[10] = second compound 3.16 µM, first compound 0.1 µM
[11] = second compound 10 µM, first compound 0.0316 µM
[12] = second compound 10 µM, first compound 0.1 µM
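Note: spheroids exposed to compounds for seven days before readout.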

With `Cn1ncnc1[C@H]1c2n[nH]c(=O)c3cc(F)cc(c23)N[C@@H]1c1ccc(F)cc1` + Nc1ccc(C#CCN(C(=O)Cc2ncc(C(F)(F)F)cc2C(F)(F)F)c2ccc(F)cc2)nn1 the IC50 (second compound 0.0316 µM) was over 0.1 µM, the IC50 (second compound 0.1 µM) was over 0.1 µM and the IC50 (second compound 0.316 µM) was over 0.1 µM. It also gave an IC50 (second compound 1 µM) of over 0.1 µM, an IC50 (second compound 3.16 µM) of over 0.1 µM and an IC50 (second compound 10 µM) of over 0.1 µM. For the same compound, the viability, T/C (second compound 0.0316 µM, first compound 0.000316 µM) was 96.1%, the viability, T/C (second compound 0.0316 µM, first compound 0.001 µM) was 125% and the viability, T/C (second compound 0.0316 µM, first compound 0.00316 µM) was 96%. It also gave a viability, T/C (second compound 0.0316 µM, first compound 0.01 µM) of 82%, a viability, T/C [1] of 110% and a viability, T/C [2] of 132%. It also gave a viability, T/C (second compound 0.1 µM, first compound 0.000316 µM) of 88.6%, a viability, T/C (second compound 0.1 µM, first compound 0.001 µM) of 157% and a viability, T/C (second compound 0.1 µM, first compound 0.00316 µM) of 92%. For the same compound, the viability, T/C (second compound 0.1 µM, first compound 0.01 µM) was 104%, the viability, T/C [3] was 119% and the viability, T/C [4] was 147%. It also gave a viability, T/C (second compound 0.316 µM, first compound 0.000316 µM) of 91.7%, a viability, T/C (second compound 0.316 µM, first compound 0.001 µM) of 154% and a viability, T/C (second compound 0.316 µM, first compound 0.00316 µM) of 91.4%. It also gave a viability, T/C (second compound 0.316 µM, first compound 0.01 µM) of 106%, a viability, T/C [5] of 96.2% and a viability, T/C [6] of 181%. The viability, T/C (second compound 1 µM, first compound 0.000316 µM) was 98.8%, the viability, T/C (second compound 1 µM, first compound 0.001 µM) was 154% and the viability, T/C (second compound 1 µM, first compound 0.00316 µM) was 96%. For the same compound, the viability, T/C (second compound 1 µM, first compound 0.01 µM) was 93.2%, the viability, T/C [7] was 115% and the viability, T/C [8] was 153%. For the same compound, the viability, T/C (second compound 3.16 µM, first compound 0.000316 µM) was 92%, the viability, T/C (second compound 3.16 µM, first compound 0.001 µM) was 135% and the viability, T/C (second compound 3.16 µM, first compound 0.00316 µM) was 95.7%. For the same compound, the viability, T/C (second compound 3.16 µM, first compound 0.01 µM) was 106%, the viability, T/C [9] was 134% and the viability, T/C [10] was 122%. The viability, T/C (second compound 10 µM, first compound 0.000316 µM) was 93.2%, the viability, T/C (second compound 10 µM, first compound 0.001 µM) was 110% and the viability, T/C (second compound 10 µM, first compound 0.00316 µM) was 88.3%. The viability, T/C (second compound 10 µM, first compound 0.01 µM) was 100%, the viability, T/C [11] was 102% and the viability, T/C [12] was 132%.
`O=C(c1cc(Cc2n[nH]c(=O)c3ccccc23)ccc1F)N1CCN(C(=O)C2CC2)CC1` + Nc1ccc(C#CCN(C(=O)Cc2ncc(C(F)(F)F)cc2C(F)(F)F)c2ccc(F)cc2)nn1 was tested, and the IC50 (second compound 0.0316 µM) was over 10 µM, the IC50 (second compound 0.1 µM) was over 10 µM and the IC50 (second compound 0.316 µM) was over 10 µM. It also gave an IC50 (second compound 1 µM) of over 10 µM, an IC50 (second compound 3.16 µM) of over 10 µM and an IC50 (second compound 10 µM) of over 10 µM. The viability, T/C [1] was 97.5%, the viability, T/C [2] was 126% and the viability, T/C (second compound 0.0316 µM, first compound 0.316 µM) was 104%. For the same compound, the viability, T/C (second compound 0.0316 µM, first compound 1 µM) was 98%, the viability, T/C (second compound 0.0316 µM, first compound 3.16 µM) was 94% and the viability, T/C (second compound 0.0316 µM, first compound 10 µM) was 150%. For the same compound, the viability, T/C [3] was 95%, the viability, T/C [4] was 132% and the viability, T/C (second compound 0.1 µM, first compound 0.316 µM) was 113%. The viability, T/C (second compound 0.1 µM, first compound 1 µM) was 90.8%, the viability, T/C (second compound 0.1 µM, first compound 3.16 µM) was 125% and the viability, T/C (second compound 0.1 µM, first compound 10 µM) was 119%. The viability, T/C [5] was 91.6%, the viability, T/C [6] was 128% and the viability, T/C (second compound 0.316 µM, first compound 0.316 µM) was 96.9%. It also gave a viability, T/C (second compound 0.316 µM, first compound 1 µM) of 98.8%, a viability, T/C (second compound 0.316 µM, first compound 3.16 µM) of 129% and a viability, T/C (second compound 0.316 µM, first compound 10 µM) of 162%. For the same compound, the viability, T/C [7] was 98.7%, the viability, T/C [8] was 113% and the viability, T/C (second compound 1 µM, first compound 0.316 µM) was 105%. For the same compound, the viability, T/C (second compound 1 µM, first compound 1 µM) was 109%, the viability, T/C (second compound 1 µM, first compound 3.16 µM) was 121% and the viability, T/C (second compound 1 µM, first compound 10 µM) was 163%. For the same compound, the viability, T/C [9] was 97.6%, the viability, T/C [10] was 114% and the viability, T/C (second compound 3.16 µM, first compound 0.316 µM) was 100%. For the same compound, the viability, T/C (second compound 3.16 µM, first compound 1 µM) was 107%, the viability, T/C (second compound 3.16 µM, first compound 3.16 µM) was 105% and the viability, T/C (second compound 3.16 µM, first compound 10 µM) was 134%. For the same compound, the viability, T/C [11] was 99.4%, the viability, T/C [12] was 102% and the viability, T/C (second compound 10 µM, first compound 0.316 µM) was 123%. It also gave a viability, T/C (second compound 10 µM, first compound 1 µM) of 99.6%, a viability, T/C (second compound 10 µM, first compound 3.16 µM) of 113% and a viability, T/C (second compound 10 µM, first compound 10 µM) of 109%.
